The target of assay [1] is Glycogen synthase kinase-3 beta (Homo sapiens, UniProt P49841). The assay can be described thus: TR-FRET Assay. Summed up:
(§1)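 TR-FRET readout: streptavidin-d2 (40 nM in added detection mix) plus Tb-anti-pSer641 Ab (2 nM in mix). Steps were 30 min compound preincubation, kinase reaction, then EDTA stop.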

Assay [2] concerns the target Glycogen synthase kinase-3 alpha (Homo sapiens, UniProt P49840). The assay can be described thus: TR-FRET Assay. The essentials: as §1

Values joined by “and” are separate entries in the source; they are usually repeats but may differ in a detail not shown here. Identical values can stand only once.

Sequence of Glycogen synthase kinase-3 beta (P49841 whole entry): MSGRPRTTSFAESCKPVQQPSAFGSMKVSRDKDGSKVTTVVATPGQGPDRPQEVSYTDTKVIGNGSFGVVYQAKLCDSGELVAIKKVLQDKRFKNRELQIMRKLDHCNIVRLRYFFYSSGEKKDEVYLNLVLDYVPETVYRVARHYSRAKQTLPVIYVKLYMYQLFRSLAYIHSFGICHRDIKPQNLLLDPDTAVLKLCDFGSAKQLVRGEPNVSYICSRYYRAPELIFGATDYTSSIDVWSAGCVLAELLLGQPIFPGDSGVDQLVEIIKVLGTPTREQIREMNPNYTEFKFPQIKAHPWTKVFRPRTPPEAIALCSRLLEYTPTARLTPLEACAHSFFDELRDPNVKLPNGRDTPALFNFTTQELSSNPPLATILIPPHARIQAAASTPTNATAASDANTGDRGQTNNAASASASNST
Sequence of Glycogen synthase kinase-3 alpha (P49840 whole entry): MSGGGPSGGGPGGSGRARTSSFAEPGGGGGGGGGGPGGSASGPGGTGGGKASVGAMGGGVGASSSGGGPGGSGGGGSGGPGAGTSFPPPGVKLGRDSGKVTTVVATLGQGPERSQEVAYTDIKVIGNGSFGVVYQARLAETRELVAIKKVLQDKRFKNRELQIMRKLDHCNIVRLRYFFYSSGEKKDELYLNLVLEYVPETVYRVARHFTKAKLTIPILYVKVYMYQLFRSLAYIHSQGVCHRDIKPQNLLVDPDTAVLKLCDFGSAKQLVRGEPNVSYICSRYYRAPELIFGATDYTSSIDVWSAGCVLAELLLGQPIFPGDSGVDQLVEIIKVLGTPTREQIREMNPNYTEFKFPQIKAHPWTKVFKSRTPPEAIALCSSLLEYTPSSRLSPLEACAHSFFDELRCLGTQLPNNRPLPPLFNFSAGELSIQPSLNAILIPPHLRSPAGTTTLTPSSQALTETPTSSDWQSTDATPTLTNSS

Regarding `CC[C@]1(c2cccc(N3CCCCC3)c2)C2=CN=NC2NC2=C1C(=O)CC(C)(C)C2` (some centres not stated) [US20250313563, Compound 810371], the IC50 in assay [1] and in assay [2] was greater than 5000 nM in each case.

Consider `CC[C@@]1(c2cccc(C(C)C)c2)C2=C(CC(C)(C)NC2=O)NC2N=NC(C(F)(F)F)=C21` (some centres not stated) [US20250313563, Compound 950494], for which the IC50 in assay [1] is < 100 nM and 100 to 1000 nM; in assay [2] it was less than 100 nM.

For the molecule `CC[C@]1(c2cccc(-c3ccnc4ccc(C)cc34)c2)C2=CN=NC2NC2=C1C(=O)NC(C)(C)C2` (some centres not stated) [US20250313563, Compound 948658], the IC50 in assay [1] and in assay [2] was greater than 5000 nM throughout.

In the case of `CC1(C)CC(=O)C2=C(C1)NC1=C(CN=N1)C21CCCC1` [US20250313563, Compound 790666], the IC50 in assay [1] and in assay [2] was less than 100 nM each time.

As for `CC[C@]1(c2cccc(N(C)c3ncccn3)c2)C2=C(N=NC2)NC2=C1C(=O)C(C)(C)C2` [US20250313563, Compound 952212], the IC50 was 100 to 1000 nM and > 5000 nM in assay [1]; < 100 nM and 100 to 1000 nM in assay [2].

With `CCC1(c2ccccc2)C2=C(CC(C)(C)CC2=O)NC2N=NC(Br)=C21` (configuration not stated) [US20250313563, Compound 789459], the IC50 in assay [1] and in assay [2] was less than 100 nM each time.

For the molecule `CC[C@]1(c2cccc(-c3ccnc(N4CCCCC4)c3)c2)C2=CN=NC2NC2=C1C(=O)NC(C)(C)C2` (some centres not stated) [US20250313563, Compound 948646], the values for the half-maximal inhibitory concentration (IC50) in assay [1] and in assay [2] were greater than 5000 nM and 1000 to 5000 nM, respectively.

Take `CC[C@]1(c2cccc(C(F)(F)F)c2)C2=C(N=NC2)NC2=C1C(=O)N(Cc1ccccc1)C2` [US20250313563, Compound 929388]: the IC50 in assay [1] was 100 to 1000 nM; in assay [2], < 100 nM and 100 to 1000 nM.

Turning to `CCC1(c2cccc(S(=O)(=O)C3CC(F)(F)C3)c2)C2=CN=NC2NC2=C1C(=O)CC(C)(C)C2` (configuration not stated) [US20250313563, Compound 944019], the IC50 in assay [1] and in assay [2] was less than 100 nM throughout.

On to `CC[C@@]1(c2cccc(-c3cc(C)nc(C)c3)c2)C2=CN=NC2NC2=C1C(=O)CC(C)(C)C2` (some centres not stated) [US20250313563, Compound 913223], for which the IC50 in assay [1] and in assay [2] was greater than 5000 nM throughout.

Regarding `CC[C@@]1(c2cccc(-c3cc(C)ncc3OC)c2)C2=CN=NC2NC2=C1C(=O)NC(C)(C)C2` (some centres not stated) [US20250313563, Compound 949512], the values for the IC50 in assay [1] and in assay [2] were greater than 5000 nM and 1000 to 5000 nM, respectively.

With `CC[C@@]1(c2cccc(-c3ccnc(OC)c3F)c2)C2=CN=NC2NC2=C1C(=O)NC(C)(C)C2` (some centres not stated) [US20250313563, Compound 948531], the IC50 in assay [1] is greater than 5000 nM; in assay [2] it was 100 to 1000 nM.

As for `CC[C@@]1(c2cccc(C3=C(C)SN(C)C3)c2)C2=CN=NC2NC2=C1C(=O)NC1(CCCC1)C2` (some centres not stated) [US20250313563, Compound 950255], the figures for the half-inhibitory concentration (IC50) in assay [1] and in assay [2] were greater than 5000 nM and 100 to 1000 nM, respectively.

`C[C@H]1C[C@@H]2C[C@@]3(C[C@@H]2C1)C1=CN=NC1NC1=C3C(=O)CC(C)(C)C1` (some centres not stated) [US20250313563, Compound 943896]: the IC50 in assay [1] and in assay [2] was less than 100 nM in each case.

For `CC[C@@]1(c2cccc(Br)c2)C2=CN=NC2NC2=C1C(=O)C[C@H](C)C2` (some centres not stated) [US20250313563, Compound 810487], the IC50 in assay [1] was 100 to 1000 nM; in assay [2], less than 100 nM.

Turning to `CCC1(c2cccc(S(=O)(=O)CCOC)c2)C2=CN=NC2NC2=C1C(=O)CC(C)(C)C2` (configuration not stated) [US20250313563, Compound 918271], the IC50 in assay [1] and in assay [2] was less than 100 nM each time.

For the molecule `CCC1(c2cccc(-c3cc(C)ncc3C)c2)C2=C(CC(C)(C)CC2=O)NC2N=NC(C(F)(F)F)=C21` (configuration not stated) [US20250313563, Compound 945530], the IC50 in assay [1] and in assay [2] was less than 100 nM each time.

For `CC[C@]1(c2cccc(S(C)(=O)=O)c2)C2=CN=NC2NC2=C1C(=O)NC(C)(C)C2` (some centres not stated) [US20250313563, Compound 945621], the IC50 was greater than 5000 nM in assay [1] and 1000 to 5000 nM in assay [2].

In the case of `CC[C@]1(c2cccc(-c3ccncc3)c2)C2=C(CC(C)(C)CC2=O)NC2N=NC(C(F)(F)F)=C21` (some centres not stated) [US20250313563, Compound 917293], the IC50 in assay [1] and in assay [2] was less than 100 nM in each case.

In the case of `CC[C@@]1(c2cccc(C(F)(F)F)c2)C2=CN=NC2NC2=C1C(=O)CC1(CCCC1)C2` (some centres not stated) [US20250313563, Compound 801310], the IC50 in assay [1] was greater than 1670 nM; in assay [2], 100 to 1000 nM.

As for `CC[C@@]1(c2cccc(-c3cnn(C)c3C(F)(F)F)c2)C2=CN=NC2NC2=C1C(=O)NC(C)(C)C2` (some centres not stated) [US20250313563, Compound 948815], the IC50 in assay [1] is 100 to 1000 nM and > 5000 nM; in assay [2], < 100 nM and 100 to 1000 nM.

With `CC[C@@]1(c2cccc(-c3ccncc3F)c2)C2=C(CC(C)(C)NC2=O)NC2N=NC(C(F)F)=C21` (some centres not stated) [US20250313563, Compound 951599], the IC50 in assay [1] and in assay [2] was 100 to 1000 nM each time.

`CC1(C)CC(=O)C2=C(C1)NC1=C(CN=N1)[C@@]21CCC[C@@H](C#N)C1` [US20250313563, Compound 945906]: the IC50 in assay [1] and in assay [2] was 100 to 1000 nM in each case.

Turning to `CC[C@]1(c2cccc(N(C)c3ccnc(F)c3)c2)C2=CN=NC2NC2=C1C(=O)CC(C)(C)C2` (some centres not stated) [US20250313563, Compound 929444], the IC50 in assay [1] and in assay [2] was less than 100 nM throughout.

As for `CC1(C)CC(=O)C2=C(NC3=C(CN=N3)C23CCOCC3)[C@@H]1F` [US20250313563, Compound 883834], the half-inhibitory concentration (IC50) in assay [1] lay within 1000 to 5000 nM; in assay [2], 100 to 1000 nM.

With `CC(C)(C)CC1=C2C(N=N1)NC1=C(C(=O)CC(C)(C)C1)C21CCc2cccc(F)c21` (configuration not stated) [US20250313563, Compound 789583], the IC50 in assay [1] and in assay [2] was 100 to 1000 nM throughout.

`CC[C@]1(c2cccc(C3=CN=NC3)c2)C2=C(CC(C)(C)NC2=O)NC2N=NC(C(F)(F)F)=C21` (some centres not stated) [US20250313563, Compound 948307]: the IC50 in assay [1] and in assay [2] was less than 100 nM each time.

Regarding `CC1(C)CC(=O)C2=C(C1)NC1=C(CN=N1)[C@@]21COC2(CN(C(=O)C3CCCC3)C2)C1` [US20250313563, Compound 943957], the IC50 in assay [1] and in assay [2] was less than 100 nM each time.

For `CC[C@]1(c2cccc(-c3ccnn3C)c2)C2=CN=NC2NC2=C1C(=O)N[C@](C)(COC)C2` (some centres not stated) [US20250313563, Compound 947908], the values for the IC50 in assay [1] and in assay [2] were greater than 5000 nM and 1000 to 5000 nM, respectively.

As for `CC[C@]1(c2cccc(-c3ccncc3C)c2)C2=C(CC(C)(C)NC2=O)NC2N=NC(C(F)(F)F)=C21` (some centres not stated) [US20250313563, Compound 947812], the IC50 in assay [1] and in assay [2] was less than 100 nM each time.

In the case of `COc1cccc(S(=O)(=O)N2CCC3(CC2)C2=C(N=NC2)NC2=C3C(=O)CC(C)(C)C2)c1F` [US20250313563, Compound 945656], the IC50 was < 100 nM and 100 to 1000 nM in assay [1]; less than 100 nM in assay [2].

As for `COc1ccc(S(=O)(=O)N2CCC[C@]3(CC2)C2=CN=NC2NC2=C3C(=O)CC(C)(C)C2)cc1` (some centres not stated) [US20250313563, Compound 932641], the IC50 in assay [1] was 100 to 1000 nM; in assay [2], less than 100 nM.

Take `CCC1(c2cccc(N(C)C(=O)Cc3ccccc3)c2)C2=CN=NC2NC2=C1C(=O)CC(C)(C)C2` (configuration not stated) [US20250313563, Compound 912071]: the IC50 in assay [1] and in assay [2] was less than 100 nM each time.

For `C[C@@H]1COCC[C@@]12C1=CN=NC1NC1=C2C(=O)CC(C)(C)C1` (some centres not stated) [US20250313563, Compound 924310], the IC50 in assay [1] and in assay [2] was greater than 5000 nM each time.

Take `CC[C@]1(c2cccc(C(F)(F)F)c2)C2=CN=NC2NC2=C1C(=O)N(c1cn(C)c(C)n1)CC2` (some centres not stated) [US20250313563, Compound 952478]: the IC50 in assay [1] is greater than 5000 nM; in assay [2], 1000 to 5000 nM.

As to `CC[C@]1(c2cccc(S(=O)(=O)C3CC3)c2)C2=CN=NC2NC2=C1C(=O)N(C)C(C)(C)C2` (some centres not stated) [US20250313563, Compound 949184], the results for the IC50 in assay [1] and in assay [2] were greater than 5000 nM and 1000 to 5000 nM, respectively.

As for `CCC1(c2cccc(-c3ccnc(OC)c3)c2)C2=CN=NC2NC2=C1C(=O)CC(C)(C)C2` (configuration not stated) [US20250313563, Compound 883850], the results for the IC50 in assay [1] and in assay [2] were 100 to 1000 nM and less than 100 nM, respectively.

`CC[C@]1(c2cccc(C(F)(F)F)c2)C2=CN=NC2NC2=C1C(=O)NC1(CCC1)C2` (some centres not stated) [US20250313563, Compound 914308]: the half-maximal inhibitory concentration (IC50) in assay [1] is < 100 nM and 1000 to 5000 nM; in assay [2] it was < 100 nM and 100 to 1000 nM.

`CC(C)N1CC2(C1)C1=C(N=NC1)NC1=C2C(=O)CC(C)(C)C1` [US20250313563, Compound 932650]: the IC50 in assay [1] and in assay [2] was greater than 5000 nM throughout.

For `CCC1(c2cccc(N(C)c3cc(C)ccn3)c2)C2=CN=NC2NC2=C1C(=O)CC(C)(C)C2` (configuration not stated) [US20250313563, Compound 943537], the IC50 was 100 to 1000 nM in assay [1] and less than 100 nM in assay [2].

For the molecule `CC[C@@]1(c2cccc(-c3c(F)cncc3F)c2)C2=CN=NC2NC2=C1C(=O)NC(C)(C)C2` (some centres not stated) [US20250313563, Compound 948525], the IC50 is < 100 nM and 1000 to 5000 nM in assay [1]; < 100 nM and 100 to 1000 nM in assay [2].

As to `CC1(C)CC(=O)C2=C(C1)NC1=C(CN=N1)[C@]21COC2(CN(C(=O)Cc3ccccc3)C2)C1` [US20250313563, Compound 948036], the IC50 in assay [1] and in assay [2] was 100 to 1000 nM throughout.

In the case of `CC[C@]1(c2cccc(-c3cnn(-c4ccccn4)c3)c2)C2=CN=NC2NC2=C1C(=O)NC(C)(C)C2` (some centres not stated) [US20250313563, Compound 949264], the IC50 in assay [1] and in assay [2] was greater than 5000 nM each time.

Consider `CC[C@@]1(c2cccc(-c3ccnc4ccccc34)c2)C2=CN=NC2NC2=C1C(=O)CC(C)(C)C2` (some centres not stated) [US20250313563, Compound 944031], for which the half-inhibitory concentration (IC50) in assay [1] and in assay [2] was less than 100 nM in each case.

In the case of `CC1(C)CC(=O)C2=C(C1)NC1=C(CN=N1)C21COC2(CN(C(=O)C3CC3(F)F)C2)C1` (configuration not stated) [US20250313563, Compound 947272], the IC50 in assay [1] and in assay [2] was less than 100 nM throughout.

For `CC1(C)CC(=O)C2=C(C1)NC1=C(CN=N1)[C@]21C[C@H](n2cccn2)C1` [US20250313563, Compound 884005], the IC50 in assay [1] and in assay [2] was less than 100 nM each time.

The values are drawn from BindingDB's records for patent US20250313563 (The Broad Institute, 2025).
